Results on 18 compounds are retold here after patent publication US7074789B2, “Kinase inhibitors” (Amgen Inc., priority 1999, dated 2006).

What all share (type): biochemical
The target of one experiment is T1, Itk (Homo sapiens, UniProt Q08881).
T1 construct: Kinases are expressed as either kinase domains or full length constructs; made in house
T1 sequence (Q08881 1-620): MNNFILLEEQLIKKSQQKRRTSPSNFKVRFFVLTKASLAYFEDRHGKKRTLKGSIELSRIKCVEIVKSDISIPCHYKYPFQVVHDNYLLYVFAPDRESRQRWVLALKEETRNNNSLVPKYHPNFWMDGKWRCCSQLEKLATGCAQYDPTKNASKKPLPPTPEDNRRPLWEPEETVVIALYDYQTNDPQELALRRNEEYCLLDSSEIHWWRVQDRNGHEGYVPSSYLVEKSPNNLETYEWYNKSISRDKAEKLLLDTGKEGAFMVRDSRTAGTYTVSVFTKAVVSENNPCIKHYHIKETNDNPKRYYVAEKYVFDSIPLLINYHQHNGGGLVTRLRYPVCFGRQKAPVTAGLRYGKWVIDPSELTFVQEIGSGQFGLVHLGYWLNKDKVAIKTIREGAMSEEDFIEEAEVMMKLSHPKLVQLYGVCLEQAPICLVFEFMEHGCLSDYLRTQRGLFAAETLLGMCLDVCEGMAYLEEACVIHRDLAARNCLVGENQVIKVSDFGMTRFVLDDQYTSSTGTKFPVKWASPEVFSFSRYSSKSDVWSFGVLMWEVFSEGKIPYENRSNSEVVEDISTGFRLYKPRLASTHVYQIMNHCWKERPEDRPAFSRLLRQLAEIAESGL
Kind of experiment: Kinase inhibition assay (33P transfer), Itk. The settings on record: read-out: Itk-1. An outline of the steps:
(§1)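 Each enzyme, purified to near homogeneity by affinity chromatography, was incubated with ATP carrying 33P and a substrate polymer fixed to the plate. Unbound label was removed with dilute phosphoric acid (0.5%) before adding scintillant and counting. Potency is given as the compound level cutting label uptake by 50%.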

The target in the next experiment is T2, Kdr (Homo sapiens, UniProt P35968).
T2 construct: Kinases are expressed as either kinase domains or full length constructs; made in house
Nature of the experiment: Kinase inhibition assay (33P transfer), Kdr. The settings on record: read-out: KDR-1. An outline of the steps: (§2)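 Enzyme activity is taken as the amount of 33PO4 moved from ATP onto poly(Glu, Tyr) 4:1 or poly(Arg, Ser) 3:1 fixed to the plate surface. Unbound label is removed with 0.5% phosphoric acid before scintillation counting.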

The next experiment addresses T3, AKT (Homo sapiens, UniProt Q9Y243).
T3 construct: Kinases are expressed as either kinase domains or full length constructs; made in house
Kind of experiment: Kinase inhibition assay (33P transfer), AKT. The settings on record: Table 2, kinase inhibition class; read-out: AKT3-1. The source says: The inhibitor compounds described herein are screened in the following manner. Kinases suitable for use in the following protocol to determine kinase activity of the compounds described herein include, -but are not limited to: Lck, Lyn, Src, Fyn, Syk, Zap-70, Itk, Tec, Btk, EGFR, ErbB2, Kdr, Flt-1, Flt-3, Tek, c-Met, InsR, and AKT.
Kinases are expressed as either kinase domains or full length constructs fused to glutathione S-transferase (GST) or polyHistidine tagged fusion proteins in either E. colior Baculovirus-High Five expression systems. […] In some instances, kinases are co-expressed or mixed with purified or partially purified regulatory polypeptides prior to measurement of activity.
Briefly, The transfer of ^33PO4 from ATP to the synthetic substrates poly(Glu, Tyr) 4:1 or poly(Arg, Ser) 3:1 attached to the bioactive surface of microtiter plates serves as the basis to evaluate enzyme activity. After an incubation period, the amount of phosphate transferred is measured by first washing the plate with 0.5% phosphoric acid, adding liquid scintillant, and then counting in a liquid scintillation detector.

For a further experiment, the target named is T4, Zap-70 (Homo sapiens, UniProt P43403).
T4 construct: Kinases are expressed as either kinase domains or full length constructs; made in house
T4 sequence (P43403 1-619): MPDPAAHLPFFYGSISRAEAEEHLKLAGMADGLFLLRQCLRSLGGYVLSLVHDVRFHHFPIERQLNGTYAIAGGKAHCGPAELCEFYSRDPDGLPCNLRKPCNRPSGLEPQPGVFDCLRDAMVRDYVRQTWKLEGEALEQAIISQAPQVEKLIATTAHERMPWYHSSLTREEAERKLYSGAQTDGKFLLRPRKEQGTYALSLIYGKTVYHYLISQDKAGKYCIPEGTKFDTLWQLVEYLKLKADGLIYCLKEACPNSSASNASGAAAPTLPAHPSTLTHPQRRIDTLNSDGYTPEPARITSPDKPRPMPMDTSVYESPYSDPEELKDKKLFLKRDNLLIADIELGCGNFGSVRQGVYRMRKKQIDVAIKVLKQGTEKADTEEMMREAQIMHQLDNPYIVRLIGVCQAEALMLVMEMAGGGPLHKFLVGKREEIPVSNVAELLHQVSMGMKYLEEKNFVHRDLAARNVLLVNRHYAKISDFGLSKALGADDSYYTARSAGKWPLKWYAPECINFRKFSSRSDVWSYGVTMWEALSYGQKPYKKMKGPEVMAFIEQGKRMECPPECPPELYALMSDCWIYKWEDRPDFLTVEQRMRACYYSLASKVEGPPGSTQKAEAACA
Nature of the experiment: Kinase inhibition assay (33P transfer), Zap-70. The settings on record: read-out: Zap-1. A digest of the protocol:
as §2

For a further experiment, the target named is T5, EGFR (Homo sapiens, UniProt P00533).
T5 construct: Kinases are expressed as either kinase domains or full length constructs; made in house
Kind of experiment: Kinase inhibition assay (33P transfer), EGFR. The settings on record: Table 2, kinase inhibition class; read-out: EGFR-1. An outline of the steps: as §1

A further experiment concerns the target T6, c-Met (Homo sapiens, UniProt P08581).
T6 construct: Kinases are expressed as either kinase domains or full length constructs; made in house
Nature of the experiment: Kinase inhibition assay (33P transfer), c-Met. The settings on record: Table 2, kinase inhibition class; read-out: Met-1. An outline of the steps: as §1

The next experiment deals with T7, Lck (Homo sapiens, UniProt P06239).
T7 construct: Kinases are expressed as either kinase domains or full length constructs; made in house
Kind of experiment: Kinase inhibition assay (33P transfer), Lck. The settings on record: read-out: Lck-1. An outline of the steps:
as §2

Where two headings read alike, the source gives them in different places.

T5 sequence (P00533 25-1210, species assumed): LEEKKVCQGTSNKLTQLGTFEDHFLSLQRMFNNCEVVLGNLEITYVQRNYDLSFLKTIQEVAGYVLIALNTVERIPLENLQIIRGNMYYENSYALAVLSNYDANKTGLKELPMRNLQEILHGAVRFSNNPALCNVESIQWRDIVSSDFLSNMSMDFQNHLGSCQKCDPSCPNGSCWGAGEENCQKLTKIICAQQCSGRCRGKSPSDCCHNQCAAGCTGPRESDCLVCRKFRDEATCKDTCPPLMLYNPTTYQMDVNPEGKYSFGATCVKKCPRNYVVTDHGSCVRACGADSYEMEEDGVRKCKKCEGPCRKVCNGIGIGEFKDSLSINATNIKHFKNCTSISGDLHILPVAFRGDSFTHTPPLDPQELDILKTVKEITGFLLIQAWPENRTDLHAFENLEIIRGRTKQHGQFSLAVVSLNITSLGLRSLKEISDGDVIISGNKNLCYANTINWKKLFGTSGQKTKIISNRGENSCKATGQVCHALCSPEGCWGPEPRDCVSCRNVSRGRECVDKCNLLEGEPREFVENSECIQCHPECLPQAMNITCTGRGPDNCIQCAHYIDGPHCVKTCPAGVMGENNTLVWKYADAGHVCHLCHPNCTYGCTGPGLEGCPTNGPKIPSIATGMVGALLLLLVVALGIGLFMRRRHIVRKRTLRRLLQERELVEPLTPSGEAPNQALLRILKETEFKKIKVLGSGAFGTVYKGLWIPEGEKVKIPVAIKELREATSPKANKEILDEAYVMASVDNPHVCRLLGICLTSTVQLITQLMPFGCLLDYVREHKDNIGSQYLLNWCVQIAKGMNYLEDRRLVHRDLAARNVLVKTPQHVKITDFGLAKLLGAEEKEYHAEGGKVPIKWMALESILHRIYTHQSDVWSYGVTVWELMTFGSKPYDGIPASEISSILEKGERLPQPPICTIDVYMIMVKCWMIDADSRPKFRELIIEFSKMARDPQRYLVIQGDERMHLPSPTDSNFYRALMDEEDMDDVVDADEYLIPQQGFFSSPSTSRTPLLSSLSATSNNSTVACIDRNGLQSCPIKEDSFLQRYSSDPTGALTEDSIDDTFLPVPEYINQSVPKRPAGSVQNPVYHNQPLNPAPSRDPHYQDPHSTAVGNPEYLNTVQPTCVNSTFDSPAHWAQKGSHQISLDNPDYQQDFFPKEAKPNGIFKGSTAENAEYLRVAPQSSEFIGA
T6 sequence (P08581 25-1390): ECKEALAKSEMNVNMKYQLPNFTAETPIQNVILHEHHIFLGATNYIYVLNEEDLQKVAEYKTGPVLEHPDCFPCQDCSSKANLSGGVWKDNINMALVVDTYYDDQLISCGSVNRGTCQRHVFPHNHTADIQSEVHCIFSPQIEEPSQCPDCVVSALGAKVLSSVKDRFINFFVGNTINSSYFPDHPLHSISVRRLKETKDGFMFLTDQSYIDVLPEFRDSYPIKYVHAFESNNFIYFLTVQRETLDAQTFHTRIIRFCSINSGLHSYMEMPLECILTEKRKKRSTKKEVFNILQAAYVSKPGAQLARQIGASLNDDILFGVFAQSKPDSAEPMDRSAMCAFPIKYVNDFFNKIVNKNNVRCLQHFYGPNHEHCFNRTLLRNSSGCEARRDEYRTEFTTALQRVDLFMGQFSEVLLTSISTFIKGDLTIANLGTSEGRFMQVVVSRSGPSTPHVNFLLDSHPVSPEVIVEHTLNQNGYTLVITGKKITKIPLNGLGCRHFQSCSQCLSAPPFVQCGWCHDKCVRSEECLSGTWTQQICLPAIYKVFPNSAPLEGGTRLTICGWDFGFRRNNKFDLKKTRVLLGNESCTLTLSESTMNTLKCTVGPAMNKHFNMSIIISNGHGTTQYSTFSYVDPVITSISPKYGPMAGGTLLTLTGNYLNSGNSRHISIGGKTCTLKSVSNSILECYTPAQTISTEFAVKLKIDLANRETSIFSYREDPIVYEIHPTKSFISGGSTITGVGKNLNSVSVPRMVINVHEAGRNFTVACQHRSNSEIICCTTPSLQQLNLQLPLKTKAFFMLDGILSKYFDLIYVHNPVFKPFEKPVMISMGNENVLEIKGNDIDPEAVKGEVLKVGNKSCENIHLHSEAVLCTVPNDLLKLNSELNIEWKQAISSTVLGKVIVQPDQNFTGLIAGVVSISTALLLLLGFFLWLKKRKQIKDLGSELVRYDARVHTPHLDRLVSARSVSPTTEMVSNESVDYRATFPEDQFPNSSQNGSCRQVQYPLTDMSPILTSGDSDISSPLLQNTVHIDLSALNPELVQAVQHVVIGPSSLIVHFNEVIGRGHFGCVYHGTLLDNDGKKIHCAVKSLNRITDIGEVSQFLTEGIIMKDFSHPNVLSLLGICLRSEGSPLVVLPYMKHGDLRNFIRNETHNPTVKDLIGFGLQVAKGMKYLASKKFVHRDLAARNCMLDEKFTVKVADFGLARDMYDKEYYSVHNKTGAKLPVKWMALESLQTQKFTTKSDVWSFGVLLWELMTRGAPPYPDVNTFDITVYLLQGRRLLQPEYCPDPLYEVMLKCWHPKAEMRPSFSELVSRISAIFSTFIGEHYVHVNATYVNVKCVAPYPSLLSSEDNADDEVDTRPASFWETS
T7 sequence (P06239 whole entry, species assumed, the tested form may be a part): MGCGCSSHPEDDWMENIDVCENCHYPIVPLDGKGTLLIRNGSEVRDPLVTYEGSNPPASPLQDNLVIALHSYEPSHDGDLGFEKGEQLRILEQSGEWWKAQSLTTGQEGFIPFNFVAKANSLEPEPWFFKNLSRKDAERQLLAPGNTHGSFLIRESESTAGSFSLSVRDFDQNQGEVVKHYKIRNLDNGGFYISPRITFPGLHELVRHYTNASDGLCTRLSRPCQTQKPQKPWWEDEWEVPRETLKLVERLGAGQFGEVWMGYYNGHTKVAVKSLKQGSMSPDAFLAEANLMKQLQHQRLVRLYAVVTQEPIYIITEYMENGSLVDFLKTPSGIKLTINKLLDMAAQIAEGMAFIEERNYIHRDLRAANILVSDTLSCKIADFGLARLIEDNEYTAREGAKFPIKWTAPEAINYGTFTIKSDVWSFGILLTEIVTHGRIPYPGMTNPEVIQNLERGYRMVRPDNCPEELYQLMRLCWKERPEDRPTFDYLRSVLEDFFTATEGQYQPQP
T3 sequence (Q9Y243 whole entry, the tested form may be a part): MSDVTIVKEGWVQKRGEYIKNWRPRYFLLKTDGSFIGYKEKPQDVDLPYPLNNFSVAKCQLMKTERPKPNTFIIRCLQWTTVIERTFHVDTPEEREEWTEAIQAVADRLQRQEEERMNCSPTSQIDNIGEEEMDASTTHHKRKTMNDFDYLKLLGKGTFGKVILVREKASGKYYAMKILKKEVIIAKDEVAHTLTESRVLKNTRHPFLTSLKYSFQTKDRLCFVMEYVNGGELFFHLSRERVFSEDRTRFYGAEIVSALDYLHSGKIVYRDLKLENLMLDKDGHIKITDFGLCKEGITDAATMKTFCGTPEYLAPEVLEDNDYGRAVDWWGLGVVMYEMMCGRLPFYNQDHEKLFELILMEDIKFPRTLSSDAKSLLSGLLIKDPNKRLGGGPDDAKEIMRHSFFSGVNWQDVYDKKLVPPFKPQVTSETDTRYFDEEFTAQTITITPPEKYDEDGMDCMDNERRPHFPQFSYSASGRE
T2 sequence (P35968 20-1356, species assumed): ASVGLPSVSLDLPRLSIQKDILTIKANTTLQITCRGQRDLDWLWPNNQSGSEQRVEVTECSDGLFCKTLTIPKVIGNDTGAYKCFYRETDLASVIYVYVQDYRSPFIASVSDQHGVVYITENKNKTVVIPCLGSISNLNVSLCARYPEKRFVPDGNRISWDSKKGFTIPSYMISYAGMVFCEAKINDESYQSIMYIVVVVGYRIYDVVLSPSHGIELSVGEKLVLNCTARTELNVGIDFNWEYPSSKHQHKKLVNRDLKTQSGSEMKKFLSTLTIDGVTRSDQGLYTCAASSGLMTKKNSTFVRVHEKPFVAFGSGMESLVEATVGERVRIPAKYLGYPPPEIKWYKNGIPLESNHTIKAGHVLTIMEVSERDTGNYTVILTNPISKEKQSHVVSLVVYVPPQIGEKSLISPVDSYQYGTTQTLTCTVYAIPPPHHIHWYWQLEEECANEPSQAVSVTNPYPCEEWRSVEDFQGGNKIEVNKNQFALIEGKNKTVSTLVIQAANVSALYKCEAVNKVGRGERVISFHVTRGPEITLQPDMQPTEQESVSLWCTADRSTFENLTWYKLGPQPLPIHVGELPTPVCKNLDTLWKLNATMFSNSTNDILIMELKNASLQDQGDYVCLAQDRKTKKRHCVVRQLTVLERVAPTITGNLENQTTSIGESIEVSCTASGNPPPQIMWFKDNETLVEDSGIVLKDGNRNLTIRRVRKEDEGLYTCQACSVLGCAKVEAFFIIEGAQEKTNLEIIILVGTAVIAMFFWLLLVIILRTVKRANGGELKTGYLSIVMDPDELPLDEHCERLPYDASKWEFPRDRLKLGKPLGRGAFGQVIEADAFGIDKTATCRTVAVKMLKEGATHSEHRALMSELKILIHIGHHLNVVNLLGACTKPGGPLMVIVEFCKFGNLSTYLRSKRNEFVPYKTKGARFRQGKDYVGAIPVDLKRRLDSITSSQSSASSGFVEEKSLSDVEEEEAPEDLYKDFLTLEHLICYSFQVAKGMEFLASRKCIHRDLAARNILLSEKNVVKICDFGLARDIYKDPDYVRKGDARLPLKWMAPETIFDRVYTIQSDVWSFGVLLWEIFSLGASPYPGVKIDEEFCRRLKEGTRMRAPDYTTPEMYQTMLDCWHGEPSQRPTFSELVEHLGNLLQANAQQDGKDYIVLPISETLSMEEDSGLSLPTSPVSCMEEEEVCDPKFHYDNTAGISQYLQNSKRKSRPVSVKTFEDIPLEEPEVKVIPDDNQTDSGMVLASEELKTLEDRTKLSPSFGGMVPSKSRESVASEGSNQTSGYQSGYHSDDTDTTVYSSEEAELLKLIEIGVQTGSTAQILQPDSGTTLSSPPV

As for `COc1cc(Nc2ncnc(-n3c(=O)oc4ccccc43)n2)cc(OC)c1OC` [Compound 423], the IC50 is more than 11.4 µM at Itk (Table 3); 1.01 to 6.07 µM on Kdr (Table 3); 6.07 to 8.85 µM on AKT; more than 11.4 µM on Zap-70 (Table 3); 1.01 to 6.07 µM on EGFR; more than 11.4 µM on c-Met. In addition, the IC50 on Lck (Table 3) was 1.01 to 6.07 µM.

As for `COc1cc(Nc2ncnc(Nc3nc(C)cs3)n2)cc(OC)c1OC` [Compound 468], the IC50 at Itk (Table 3) was more than 12 µM; at Kdr (Table 3), 1.07 to 6.41 µM; on AKT, more than 12 µM; at Zap-70 (Table 3), more than 12 µM; on EGFR, 1.07 to 6.41 µM; at c-Met it was more than 12 µM. At Lck (Table 3), the IC50 was more than 12 µM.

Take `O=c1[nH]c2ccccc2n1-c1ncnc(Nc2ccccn2)n1` [Compound 487]: the IC50 on Itk, at Kdr, at AKT, at Zap-70, on EGFR and on c-Met was more than 14.7 µM each time. For the same compound, at Lck, the IC50 was more than 14.7 µM.

As to `COc1cc(Nc2ncnc(-c3cccnc3NCc3ccccn3)n2)cc(OC)c1OC` [Compound 1080], the IC50 at Itk was more than 10.1 µM; on Kdr, less than 0.898 µM; at AKT it was more than 10.1 µM; on Zap-70, more than 10.1 µM; at EGFR, more than 10.1 µM; at c-Met, more than 10.1 µM. The IC50 on Lck lay in the range of 5.39 to 7.86 µM.

`O=c1[nH]c2ccccc2n1-c1ncnc(Nc2cccc3ccccc23)n1` [Compound 683]: the IC50 at Itk, on Kdr, on AKT, at Zap-70, at EGFR and on c-Met was more than 12.7 µM throughout. The IC50 at Lck is more than 12.7 µM.

On to `C=CCNc1ncccc1-c1ncnc(Nc2ccc(C(N)=O)cc2)n1` [Compound 1081], for which the IC50 at Itk is more than 13 µM; at Kdr, less than 1.15 µM; on AKT, more than 13 µM; at Zap-70 it was more than 13 µM; at EGFR, more than 13 µM; at c-Met it was more than 13 µM. At Lck, the IC50 was in the range of 1.15 to 6.91 µM.

As for `CC(C)(C)c1cc(Nc2ncnc(Nc3ccc(C(N)=O)cc3)n2)[nH]n1` [Compound 502], the IC50 at Itk was 1.14 to 6.81 µM; on Kdr it was 1.14 to 6.81 µM; at AKT, 1.14 to 6.81 µM; on Zap-70 it was more than 12.8 µM; on EGFR, 1.14 to 6.81 µM; at c-Met it was 1.14 to 6.81 µM. Further, the IC50 on Lck is 1.14 to 6.81 µM.

For `O=c1[nH]c2ccccc2n1-c1ncnc(Nc2cccc(Cl)c2)n1` [Compound 457], the IC50 at Itk (Table 3) is more than 13.3 µM; at Kdr (Table 3) it was 1.18 to 7.08 µM; on AKT, more than 13.3 µM; at Zap-70 (Table 3), more than 13.3 µM; on EGFR, 7.08 to 10.3 µM; at c-Met, more than 13.3 µM. The IC50 at Lck (Table 3) is 10.3 to 13.3 µM.

Turning to `COC(=O)n1c(=O)n(-c2ncnc(Nc3cc(OC)c(OC)c(OC)c3)n2)c2ccccc21` [Compound 1032], the IC50 on Itk was more than 9.95 µM; on Kdr, 0.884 to 5.3 µM; on AKT, more than 9.95 µM; on Zap-70 it was more than 9.95 µM; at EGFR, more than 9.95 µM; on c-Met it was more than 9.95 µM. Also, the IC50 on Lck was more than 9.95 µM.

As to `CC(C)(C)c1cc(Nc2ncnc(Nc3cccc(C(N)=O)c3)n2)[nH]n1` [Compound 500], the IC50 was 1.14 to 6.81 µM at Itk; 1.14 to 6.81 µM on Kdr; more than 12.8 µM on AKT; more than 12.8 µM on Zap-70; 1.14 to 6.81 µM at EGFR; 1.14 to 6.81 µM on c-Met. In addition, the IC50 on Lck is 1.14 to 6.81 µM.

Regarding `O=c1[nH]c2ccccc2n1-c1ncnc(Nc2ccc(O)cc2)n1` [Compound 682], the IC50 at Itk was 10.9 to 14 µM; at Kdr, 1.25 to 7.49 µM; on AKT, more than 14 µM; on Zap-70, more than 14 µM; on EGFR, 1.25 to 7.49 µM; at c-Met it was 7.49 to 10.9 µM. Also, the IC50 at Lck fell in the range of 7.49 to 10.9 µM.

`CC(C)(C)c1cc(Nc2ncnc(Nc3ccc(CO)cc3)n2)[nH]n1` [Compound 501]: the IC50 at Itk is 1.18 to 7.07 µM; at Kdr, 1.18 to 7.07 µM; at AKT it was more than 13.3 µM; on Zap-70, more than 13.3 µM; at EGFR, 1.18 to 7.07 µM; on c-Met, less than 1.18 µM. Further, the IC50 on Lck is 1.18 to 7.07 µM.

As for `CC(C)(C)OC(=O)NCc1cccc(Nc2ncnc(Nc3cc(C(C)(C)C)n[nH]3)n2)c1` [Compound 987], the IC50 at Itk, at Kdr, on AKT, on Zap-70, on EGFR and at c-Met was more than 10.3 µM each time. Besides, the IC50 at Lck lay in the range of 0.912 to 5.47 µM.

As for `O=c1[nH]c2ccccc2n1-c1ncnc(Nc2ccccc2)n1` [Compound 482], the IC50 is more than 14.8 µM at Itk; less than 1.31 µM at Kdr; more than 14.8 µM at AKT; more than 14.8 µM at Zap-70; more than 14.8 µM at EGFR; more than 14.8 µM at c-Met. For the same compound, at Lck, the IC50 is more than 14.8 µM.

`O=c1[nH]c2ccccc2n1-c1ncnc(Nc2cccc(OC(F)(F)F)c2)n1` [Compound 461]: the IC50 on Itk (Table 3), on Kdr (Table 3), on AKT, on Zap-70 (Table 3), at EGFR and on c-Met was more than 11.6 µM in each case. Moreover, on Lck (Table 3), the IC50 was more than 11.6 µM.

In the case of `O=c1[nH]c2ccccc2n1-c1ncnc(Nc2ccc3ncccc3c2)n1` [Compound 687], the IC50 on Itk is 9.85 to 12.7 µM; at Kdr, 1.13 to 6.75 µM; on AKT, more than 12.7 µM; at Zap-70, more than 12.7 µM; at EGFR it was 9.85 to 12.7 µM; at c-Met, more than 12.7 µM. In addition, at Lck, the IC50 is 1.13 to 6.75 µM.

With `O=c1[nH]c2ccccc2n1-c1ncnc(Nc2ccccc2Cl)n1` [Compound 484], the IC50 at Itk is more than 13.3 µM; on Kdr, more than 13.3 µM; at AKT, more than 13.3 µM; on Zap-70 it was more than 13.3 µM; on EGFR, 1.18 to 7.08 µM; on c-Met, 7.08 to 10.3 µM. In addition, on Lck, the IC50 is more than 13.3 µM.

`O=c1[nH]c2ccccc2n1-c1ncnc(Nc2cccc3ncccc23)n1` [Compound 686]: the IC50 at Itk, on Kdr, on AKT, on Zap-70, at EGFR and on c-Met was more than 12.7 µM in each case. Moreover, at Lck, the IC50 was more than 12.7 µM.
